These results are taken from patent publication US6369034B1, “Functionalized alkyl and alenyl side chain derivatives of glycinamides as farnesyl transferase inhibitors” (Warner-Lambert Company, priority 1998, dated 2002).

The subject of assay [1] is human lung carcinoma with K-ras mutation and p53 deletion. The settings on record: nude mice; cited from earlier work.
Assay [2] concerns the target T1, SF9 affinity purified rat FPT (Rattus norvegicus, UniProt Q02293+Q04631).
T1 construct: made in house; host or cells: Sf9 insect cells
In words: PFT inhibitory activity. In kind it is biochemical. The note with it: average of two tests. The protocol: The protein:farnesyl transferase (PFT) or farnesyl protein transferase (FPT) inhibitory activity of compounds of the present invention were assayed in HEPES buffer (pH 7.4) containing 5 mM potassium phosphate and 20 μM ZnCl2. The solution also contained 5 mM DTT (dithiothreitol), 5 mM MgCl2, and 0.1% PEG 8000. Assays were performed in 96 well plates (Wallec) and employed solutions composed of varying concentrations of a compound of the present invention in 10% DMSO (dimethylsulfoxide). Upon addition of both substrates, radiolabeled farnesyl pyrophosphate ([1^3H], specific activity 15-30 Ci/mmol, final concentration 134 nM) and (biotinyl)-Ahe-Thr-Lys-Cys-Val-Ile-Met ([3aS[3a alpha, 4 beta, 6a alpha]-hexahydro-2-oxo-1H-thieno[3,4-d]imidazole-5-pentanoic acid]-[7-aminoheptanoic acid]-Thr-Lys-Cys-Val-Ile-Met) (Ahe is 7-aminoheptanoic acid, Thr is threonine, Lys is lysine, Cys is cysteine, Val is valine, Ile is isoleucine, and Met is methionine) (final concentration 0.2 4μM), the enzyme reaction was started by addition of SF9 affinity purified rat FPT. After incubation at 30° C. for 30 minutes, the reaction was terminated by diluting the reaction 2.5-fold with a stop buffer containing 1.5 M magnesium acetate, 0.2 M H3PO4, 0.5% BSA (bovine serum albumin), and strepavidin beads (Amersham) at a concentration of 1.3 mg/mL. After allowing the plate to settle for 30 minutes at room temperature, radioactivity was quantitated on a microBeta counter (Model 1450, Wallec). The assay was also carried out without 5 mM potassium phosphate.

Assay [3] deals with Ras protein in ras-transformed cells. The assay is described as follows: Gel Shift Assay. In kind it is cell-based. The note with it: 18-hour incubation, read-out: Gel Shift (μM) MED. As to the method:
Twenty-four hours after planting 2×10^6 ras-transformned cells per treatment condition, the farnesylation inhibitor is added at varying concentrations. Following an 18-hour incubation period, cells are lysed in phosphate-buffered saline containing 1% Triton X-100, 0.5% sodium deoxycholate, and 0.1% SDS (sodium dodecyl sulfate), pH 7.4 in the presence of several protease inhibitors (PMSF (phenylmethylsulfonylfluoride), antipain, leupeptin, pepstatin A, and aprotinin all at 1 μg/mL). Ras protein is immunoprecipitated from the supernatants by the addition of 3 μg v-H-ras Ab-2 (Y13-259 antibody from Oncogene Science). After overnight immunoprecipitation, 30 μL of a 50% protein G-Sepharose slurry (Pharmacia) is added followed by 45-minute incubation. Pellets are resuspended in 2×tris-glycine loading buffer (Novex) containing 5% mercaptoethanol and then denatured by 5 minutes boiling prior to electrophoresis on 14% Tris-glycine SDS gels. Using Western transfer techniques, proteins are transferred to nitrocellulose membranes followed by blocking in blocking buffer. Upon overnight incubation with primary antibody (pan-ras Ab-2 from Oncogene Science), an antimouse HRP (horse radish peroxidase) conjugate secondary antibody (Amersham) is employed for detection of the ras protein. Blots are developed using ECL(enhanced chemiluminescence) techniques (Amersham).

The subject of assay [4] is mammary and salivary carcinomas. The note with it: daily administration; ras transgenic mice; cited from earlier work.
Where [5] appears, read: HEPES buffer pH 7.4, without 5 mM potassium phosphate, read-out: IC50 (μM) Hepes.
Setting [6] is: HEPES buffer pH 7.4 containing 5 mM potassium phosphate, read-out: IC50 (μM) Hepes/5 mM KPO4^−2.

Each structure is given as a SMILES string. Read-outs that look alike come from different tables or passages of the source. A value given as a limit tells only on which side of the number the result lay.

Take `CSCC[C@H](NC(=O)c1ccc(NC[C@@H](N)CS)cc1-c1ccccc1)C(=O)O` [FT1276]: the tumor growth entry in assay [1] is reported as “selectively block tumor growth”.
With `C/C=C/CN(CC(=O)NCC(C)(C)c1ccccc1)C(=O)[C@H](Cc1c[nH]cn1)NC(=O)OCc1ccccc1` [Example 9, Benzyl N-[2-((E)-2-butenyl-2-[(2-methyl-2-phenylpropyl)amino]-2-oxoethylamino)-1-(1H-4-imidazolylmethyl1)-2-oxoethyl]carbamate], the IC50 worked out at 1.4 µM in assay [2] (setting [5]) and 0.011 µM in assay [2] (setting [6]). The minimal effective concentration in assay [3] came to 0.01 µM.
Regarding `CSCCN(CC(=O)NCC(C)(C)c1ccccc1)C(=O)C(Cc1cnc[nH]1)NC(=O)OCc1ccccc1` (centres unmarked) [Example 14, {2-(3H-Imidazol-4-yl)-1-[[(2-methyl-2-phenyl-propylcarbamoyl)-methyl]-(2-methylsulfanyl-ethyl)-carbamoyl]-ethyl}-carbamic acid benzyl ester], the IC50 in assay [2] (setting [5]) worked out at 1.2 µM; in assay [2] (setting [6]), 0.006 µM. Besides, the minimal effective concentration in assay [3] was determined as 0.05 µM.
For `CC(C)(CNC(=O)CN(CCN)C(=O)C(Cc1cnc[nH]1)NC(=O)OCc1ccccc1)c1ccccc1` (centres unmarked) [Example 6, [1-{(2-Amino-ethyl)-[(2-methyl-2-phenyl-propylcarbamoyl)-methyl]-carbamoyl}-2-(3H-imidazol-4-yl)-ethyl]-carbamic acid benzyl ester] the same measures were 36 µM, 0.072 µM and greater than 1 µM.
Consider `CN(C)C(=O)CCN(CC(=O)NCC(C)(C)c1ccccc1)C(=O)C(Cc1cnc[nH]1)NC(=O)OCc1ccccc1` (centres unmarked) [Example 13, [1-{(2-Dimethylcarbamoyl-ethyl)-[(2-methyl-2-phenyl-propylcarbamoyl)-methyl]-carbamoyl}-2-(3H-imidazol-4-yl)ethyl]-carbamic acid benzyl ester], for which the results for the IC50 in assay [2] (setting [5]) and in assay [2] (setting [6]) were 4 µM and 0.007 µM, respectively.
Consider `CC(C)(CNC(=O)CN(CCN1CCOCC1)C(=O)[C@H](Cc1c[nH]cn1)NC(=O)OCc1ccccc1)c1ccccc1` [Example 11, Benzyl N-(1S)-1-(1H-4-imidazolylmethyl)-2-[2-[(2-methyl-2-phenylpropyl)amino]-2-oxoethyl(2-morpholinoethyl)amino]-2-oxoethylcarbamate], for which the IC50 in assay [2] (setting [5]) came out at 2.1 µM; in assay [2] (setting [6]), 0.016 µM. Moreover, the minimal effective concentration in assay [3] came to 0.2 µM.
Consider `C[C@@H](c1ccccc1)N(CC(=O)NCC(C)(C)c1ccccc1)C(=O)[C@H](Cc1c[nH]cn1)NC(=O)OCc1ccccc1` [Example 1, Benzyl N-((1S)-1-(1H-4-imidazolylmethyl)-2-2-[(2-methyl-2-phenylpropyl)amino]-2-oxoethyl[(1S)-1-phenylethyl]amino-2-oxoethyl)carbamate], for which the IC50 in assay [2] (setting [5]) amounted to 0.57 µM; in assay [2] (setting [6]), 0.001 µM. Also, in assay [3], the minimal effective concentration was 0.01 µM.
As for `CC(C)(CNC(=O)CN(CCC(=O)O)C(=O)[C@H](Cc1c[nH]cn1)NC(=O)OCc1ccccc1)c1ccccc1` [Example 5, 3-([(2S)-2-[(Benzyloxy)carbonyl]amino-3-(1H-4-imidazolyl)propanoyl]-2-[(2-methyl-2-phenylpropyl)amino]-2-oxoethylamino)propanoic acid], the IC50 in assay [2] (setting [5]) was 2.3 µM; in assay [2] (setting [6]) it was less than 0.001 µM. Moreover, in assay [3], the minimal effective concentration was found to be 1 µM.
The corresponding values for `COC(=O)CCN(CC(=O)NCC(C)(C)c1ccccc1)C(=O)[C@H](Cc1c[nH]cn1)NC(=O)OCc1ccccc1` [Example 4, Methyl 3-([(2S)-2-[(benzyloxy)carbonyl]amino-3-(1H-4-imidazolyl)propanoyl]-2-[(2-methyl-2-phenylpropyl)amino]-2-oxoethylamino)propanoate] are 5 µM, 0.018 µM and 0.1 µM.
In the case of `CC(C)OC(=O)CCN(CC(=O)NCC(C)(C)c1ccccc1)C(=O)[C@H](Cc1c[nH]cn1)NC(=O)OCc1ccccc1` [Example 12, 3-{[2-Benzyloxycarbonylamino-3-(3H-imidazol-4-yl)-propionyl]-[(2-methyl-2-phenyl-prolylcarbamoyl)-methyl]-amino}-propionic acid isopropyl ester], the figures for the IC50 in assay [2] (setting [5]) and in assay [2] (setting [6]) were 2.2 µM and 0.034 µM, respectively.
In the case of `CC[C@H](C)[C@@H](CO[C@@H](Cc1ccccc1)C(=O)N[C@@H](CCS(C)(=O)=O)C(=O)OC(C)C)NC[C@@H](N)CS` [L-744,832], the tumor regression result in assay [4] was “caused tumor regression”.
`COCCN(CC(=O)NCC(C)(C)c1ccccc1)C(=O)C(Cc1cnc[nH]1)NC(=O)OCc1ccccc1` (centres unmarked) [Example 8, (2-(3H-Imidazol-4-yl)-1-{(2-methoxy-ethyl)-[(2-methyl-2-phenyl-propylcarbamoyl)-methyl]-carbamoyl}-ethyl)-carbamic acid benzyl ester]: the IC50 was found to be 4.8 µM in assay [2] (setting [5]) and 0.019 µM in assay [2] (setting [6]). For the same compound, the minimal effective concentration in assay [3] worked out at 0.2 µM.
For `CC(OC(=O)NC(Cc1c[nH]cn1)C(=O)N(CC(=O)NCC(C)(C)c1ccccc1)Cc1ccc(OCc2ccccc2)cc1)c1ccccc1` (centres unmarked) [Example 10, [1-{(4-Benzyloxy-benzyl)-[(2-methyl-2-phenyl-propylcarbamoyl)-methyl]-carbamoyl}-2-(1H-imidazol-4-yl)-ethyl]-carbamic acid 1-phenyl-ethyl ester] the same measures were 0.25 µM, 0.004 µM and 0.01 µM.
On to `CC(C)(CNC(=O)CN(CC(C)(C)c1ccccc1)C(=O)[C@H](Cc1c[nH]cn1)NC(=O)OCc1ccccc1)c1ccccc1` [Example 3, Benzyl N-[(1S)-1-(1H-4-imidazolylmethyl)-2-((2-methyl-2-phenylpropyl)2-[(2-methyl-2-phenylpropyl)amino]-2-oxoethylamino)-2-oxoethyl]carbamate], for which the IC50 is 0.098 µM in assay [2] (setting [5]) and 0.001 µM in assay [2] (setting [6]). Besides, the minimal effective concentration in assay [3] worked out at 0.01 µM.
On to `CNCCN(CC(=O)NCC(C)(C)c1ccccc1)C(=O)[C@H](Cc1c[nH]cn1)NC(=O)OCc1ccccc1` [Example 7, Benzyl N-[(1S)-1-(1H-4-imidazolylmethyl)-2-([2-(methylamino)ethyl]-2-[(2-methyl-2-phenylpropyl)amino]-2-oxoethylamino)-2-oxoethyl]carbamate], for which the IC50 in assay [2] (setting [5]) is greater than 30 µM; in assay [2] (setting [6]) it was 0.92 µM.
On to `C[C@H](c1ccccc1)N(CC(=O)NCC(C)(C)c1ccccc1)C(=O)[C@H](Cc1c[nH]cn1)NC(=O)OCc1ccccc1` [Example 2, Benzyl N-((1S)-1-(1H-4-imidazolylmethyl)-2-2-[(2-methyl-2-phenylpropyl)amino]-2-oxoethyl[(1R)-1-phenylethyl]amino-2-oxoethyl)carbamate], for which the IC50 in assay [2] (setting [5]) turned out to be 8.3 µM; in assay [2] (setting [6]) it was 0.065 µM. The minimal effective concentration in assay [3] stood at 1 µM.
